Test results reported in patent publication US20060069132A1, “Azolecarboxamide herbicides” (priority 2004, published 2006).

Tests used:
rice [1] = assay: Test C flooded paddy test; assay type: in vivo, Oryza sativa; conditions: for Plant response rating, Rice: 500 g ai/ha, visual rating after 12 to 14 days
How it was run: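 Injury scored visually against controls on a 0 (no effect) to 100 (complete control) scale, 12 to 14 days after treatment in greenhouse. Flooded paddy plants treated at 2-leaf stage; postemergence plants at 1- to 4-leaf stage, 2 to 18 cm tall.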

Surinam grass = assay: Test C pre-/postemergence herbicide test; assay type: in vivo, Urochloa decumbens
How it was run: (§1)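 Pre- and postemergence application, solvent/surfactant formulation; post at 1- to 4-leaf stage (2–18 cm). Greenhouse 12–14 d. Visual rating vs controls, 0 = no effect, 100 = complete control.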

kochia = assay: Test C pre-/postemergence herbicide test; assay type: in vivo, Kochia scoparia
How it was run: as §1

large crabgrass = assay: Test C pre-/postemergence herbicide test; assay type: in vivo, Digitaria sanguinalis
How it was run: as §1

goosegrass = assay: Test C pre-/postemergence herbicide test; assay type: in vivo, Eleusine indica
How it was run: as §1

rice [2] = assay: Test B pre-/postemergence herbicide test; assay type: in vivo, Oryza sativa; conditions: preemergence; for Plant response rating, Rice: 500 g ai/ha, visual rating 0-100, 0 no effect, 100 complete control
How it was run: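 Greenhouse pot assay with simultaneous preemergence (treated seed) and postemergence (2–18 cm seedlings) applications of surfactant-containing, non-phytotoxic solvent formulations. Response scored visually 13–15 days later on a 0–100 scale, 100 meaning complete control.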

soybean = assay: Test C pre-/postemergence herbicide test; assay type: in vivo, Glycine max
How it was run: as §1

velvetleaf = assay: Test C pre-/postemergence herbicide test; assay type: in vivo, Abutilon theophrasti; conditions: for Plant response rating, Velvetleaf: preemergence
How it was run: as §1

pigweed = assay: Test C pre-/postemergence herbicide test; assay type: in vivo, Amaranthus retroflexus
How it was run: as §1

johnsongrass = assay: Test C pre-/postemergence herbicide test; assay type: in vivo, Sorghum halepense
How it was run: as §1

[3] = 62 g ai/ha, scale 0 to 100 (0 no effect, 100 complete control)
[4] = 125 g ai/ha, scale 0 to 100 (0 no effect, 100 complete control)
[5] = 250 g ai/ha, scale of 0 to 100, 0 is no effect, 100 is complete control
[6] = scale 0 to 100 (0 no effect, 100 complete control)
[7] = 125 g ai/ha, scale 0 (no effect) to 100 (complete control), visual, 12 to 14 days, preemergence
[8] = 125 g ai/ha, scale 0 (no effect) to 100 (complete control), visual, 12 to 14 days
[9] = 62 g ai/ha, preemergence, scale 0 to 100
[10] = 250 g ai/ha, scale 0-100, preemergence
[11] = Preemergence, 500 g ai/ha, scale 0 to 100, 0 no effect, 100 complete control

SMILES: CCn1nc(C(C)(C)C)cc1C(=O)Nc1cccc(SC)c1 [Compound 131]
- Rice plant response rating (rice [1]; [3]): 0
- Rice plant response rating (rice [1]; [4]): 0
- Rice plant response rating (rice [1]; [5]): 0
- Plant response rating, Rice (rice [1]; [6]): 10
- Plant response rating (0 = no effect, 100 = complete control), Surinam Grass (Surinam grass; 62 g ai/ha, preemergence): 0
- Plant response rating, Surinam Grass (Surinam grass; [7]): 0
- Plant response rating (0 = no effect, 100 = complete control), Kochia (kochia; 62 g ai/ha, preemergence): 85
- Plant response rating, Kochia (kochia; [7]): 85
- Plant response rating (0 = no effect, 100 = complete control), Crabgrass, Large (large crabgrass; 62 g ai/ha, preemergence): 45
- Plant response rating, Crabgrass, Large (large crabgrass; [7]): 90
- Plant response rating, Crabgrass, Large (large crabgrass; 250 g ai/ha, scale 0 to 100 (0 no effect, 100 complete control), visual, 12 to 14 days, preemergence): 90
- Plant response rating (0 = no effect, 100 = complete control), Goosegrass (goosegrass; 62 g ai/ha, preemergence): 15
- Plant response rating, Goosegrass (goosegrass; [7]): 65
- Plant response rating, Rice (rice [2]): 50
- Plant response rating (0 = no effect, 100 = complete control), Soybean (soybean; 62 g ai/ha, preemergence): 0
- Plant response rating, Soybean (soybean; [7]): 0
- Plant response rating, Velvetleaf (velvetleaf; [8]): 15
- Plant response rating (0 = no effect, 100 = complete control), Pigweed (pigweed; 62 g ai/ha, preemergence): 95
- Plant response rating, Pigweed (pigweed; [7]): 100
- Plant response rating (0 = no effect, 100 = complete control), Johnsongrass (johnsongrass; 62 g ai/ha, preemergence): 15
- Plant response rating, Johnsongrass (johnsongrass; [7]): 40

SMILES: C=CCNC(=O)c1cccc(NC(=O)c2sc(C(C)(C)C)nc2CC)c1 [Compound 207]
- Rice plant response rating (rice [1]; [3]): 30
- Rice plant response rating (rice [1]; [4]): 45
- Rice plant response rating (rice [1]; [5]): 50
- Plant response rating, Rice (rice [1]; [6]): 60
- Plant response rating, Surinam Grass (Surinam grass; [9]): 0
- Plant response rating, Surinam Grass (Surinam grass; [7]): 0
- Plant response rating, Surinam Grass (Surinam grass; [10]): 0
- Surinam Grass plant response rating (Surinam grass; [11]): 10
- Plant response rating, Kochia (kochia; [9]): 90
- Plant response rating, Kochia (kochia; [7]): 90
- Plant response rating, Kochia (kochia; [10]): 90
- Kochia plant response rating (kochia; [11]): 95
- Plant response rating, Crabgrass, Large (large crabgrass; [9]): 80
- Plant response rating, Crabgrass, Large (large crabgrass; [7]): 90
- Plant response rating, Crabgrass, Large (large crabgrass; [10]): 100
- Crabgrass, Large plant response rating (large crabgrass; [11]): 100
- Plant response rating, Goosegrass (goosegrass; [9]): 10
- Plant response rating, Goosegrass (goosegrass; [7]): 60
- Plant response rating, Goosegrass (goosegrass; [10]): 80
- Goosegrass plant response rating (goosegrass; [11]): 100
- Rice plant response rating (0 to 100 scale) (rice [2]; 125 g ai/ha, 0 = no effect, 100 = complete control): 50
- Plant response rating, Rice (rice [2]): 70
- Plant response rating, Soybean (soybean; [9]): 0
- Plant response rating, Soybean (soybean; [7]): 0
- Plant response rating, Soybean (soybean; [10]): 0
- Soybean plant response rating (soybean; [11]): 0
- Plant response rating, Velvetleaf (velvetleaf; 62 g ai/ha, scale 0 to 100): 0
- Plant response rating, Velvetleaf (velvetleaf; [8]): 10
- Plant response rating, Velvetleaf (velvetleaf; 250 g ai/ha, scale 0-100): 40
- Velvetleaf plant response rating (velvetleaf; [11]): 60
- Plant response rating, Pigweed (pigweed; [9]): 100
- Plant response rating, Pigweed (pigweed; [7]): 100
- Plant response rating, Pigweed (pigweed; [10]): 100
- Pigweed plant response rating (pigweed; [11]): 100
- Plant response rating, Johnsongrass (johnsongrass; [9]): 0
- Plant response rating, Johnsongrass (johnsongrass; [7]): 10
- Plant response rating, Johnsongrass (johnsongrass; [10]): 40
- Johnsongrass plant response rating (johnsongrass; [11]): 50
